EP4596556A1, “SPIROCYCLIC DERIVATIVE-CONTAINING SALT OR CRYSTAL FORM, AND PREPARATION METHOD THEREFOR AND USE THEREOF” (Shujing Biopharma Co., Ltd, priority 2022, dated 2024)
≈ marks a conversion by molar mass, not a printed value. Counter-ions that a name gives are not always drawn. Like-named read-outs stand apart in the source and are kept apart here.

Experiments:
[1] = Solid (chemical) stability under high temperature, high humidity and light; type: physicochemical
Protocol: Investigating the chemical stability of each hydrochloride crystal form of Compound A under high temperature, high humidity, and light conditions.
Appropriate amounts of hydrochloride crystal form I and hydrochloride crystal form II of Compound A were weighed and placed in weighing dishes respectively; three samples for each salt were prepared, and placed respectively in a oven at 60°C, a drying dish with RH 92.5%, and a stability test chamber with an illumination condition of 5000 1x for 85 days. After mixing all samples evenly at day 0, day 10, day 20, and day 85, samples were taken and dissolved in acetonitrile and water, and the content and impurity changes were detected by HPLC-related substance detection method.

[2] = Equilibrium solubility in water for 24 hours; type: physicochemical
Protocol: Investigating the equilibrium solubility of each hydrochloride crystal form of Compound A in water for 24 hours.
Excess samples of hydrochloride crystal form I and hydrochloride crystal form II of Compound A were weighed and placed in different 10 mL centrifuge tubes, and 1 mL of deionized water was added, sealed with a parafilm, shaking at a constant temperature of 37°C and 150 rpm for 24 hours; after passing through a 0.45 µm organic filter, the sample was diluted and injected for HPLC analysis.

[3] = Solution stability at different pH (HPLC content, 0-24 hours); type: physicochemical; conditions: after 24 hours at pH 1.0, 3.0, 5.0 and 7.0
Protocol: Investigating the solution stability of each hydrochloride crystal form of Compound A.
Solutions with pH of 1.0, 3.0, 5.0, and 7.0 solutions were prepared using hydrochloric acid, phosphoric acid, and sodium hydroxide. Appropriate amounts of hydrochloride crystal form I and hydrochloride crystal form II of Compound A were accurately weighed respectively and added to corresponding 20 mL volumetric flasks and labeled, dissolving in media with different pH, passing through a 0.45 µ m organic filters for HPLC analysis. The content changes of the samples from 0-24 hours were monitor, and the results were calculated.

[4] = Mouse pharmacokinetic experiment, oral gavage; type: in vivo; conditions: ICR mice, 5 mg/kg, plasma
Protocol: The mice were administered by oral gavage, and the plasma concentrations of each hydrochloride crystal form of Compound A in mice were determined, the PK parameters were calculated, and the pharmacokinetics were evaluated.
• (1) Experimental samples: hydrochloride crystal forms I, II, and III of Compound A of the present application, self-made. • (2) Experimental animals: ICR mice, SPF grade, male, Shanghai SLAC Laboratory Animal Co., Ltd.
The compound was administered via oral gavage at a dosage of 5 mg/kg. ICR mice were stratified by body weight and randomly divided into groups of 3 mice each, and fasted overnight before the experiment. Administering according to the prescribed dosage and schedule, and […] of blood was taken from the mandibular vein or saphenous vein of mice by cross sampling at fixed time points to a sample tube containing anticoagulant sodium heparin and placed in wet ice, centrifuging at 4000 r · min^-1 for 10 minutes to separate the plasma for LC-MS analysis.
The measured blood drug concentration-time data was substituted into the Winnonlin 7.0 program to calculate the main pharmacokinetic parameters. Table 3.3: Results of mouse pharmacokinetic experiments

TAAR1 receptor = target: T1, TAAR1 receptor (Homo sapiens, UniProt Q96RJ0); experiment: TAAR1 receptor cAMP agonist test; type: cell-based
T1 sequence (Q96RJ0 1-339): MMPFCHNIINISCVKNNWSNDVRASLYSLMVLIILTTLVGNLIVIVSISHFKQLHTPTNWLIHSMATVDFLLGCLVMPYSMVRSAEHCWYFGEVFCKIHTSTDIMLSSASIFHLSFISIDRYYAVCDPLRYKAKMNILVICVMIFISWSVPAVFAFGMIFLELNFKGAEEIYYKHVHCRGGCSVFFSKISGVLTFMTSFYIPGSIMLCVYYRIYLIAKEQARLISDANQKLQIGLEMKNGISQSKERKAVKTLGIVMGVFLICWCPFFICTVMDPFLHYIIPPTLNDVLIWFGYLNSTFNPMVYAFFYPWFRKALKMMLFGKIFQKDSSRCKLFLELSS
Text: The cAMP detection kit was purchased from Cisbio; the […] cell line stably expressing TAAR1 receptor was constructed by Shanghai Shujing Biotechnology Co., Ltd.; IBMX was purchased from Sigma; Phenethylamine (PEA); ProxiPlate-384 well plate was purchased from PerkinElmer; HBSS was purchased from Thermo Fisher Scientific Company.
Activation rate (activity%)=(negative control ratio-compound ratio)/(negative control ratio-positive control ratio)×100%.
The EC50 values of the compounds were calculated using the four-parameter fitting model log(agonist)vs.response--Variable slope(four parameters) in GraphPad Prism.

[5] = system: high spontaneous activity induced by MK-801 in mice; experiment: Inhibition of high spontaneous activity induced by MK-801 in mice; type: in vivo; conditions: p.o., MK-801 0.3 mg/kg i.p., male C57Bl/6J mice
Protocol: Compounds to be tested: compounds in the examples of the present application, self-made.
3.2.1 Grouping of animals: before the start of the experiment, animals were randomly grouped according to body weight.
3.2.2 Animal adaptation: before the experiment, the mice were first adapted to the experimental environment for at least 1 hour. That is, the animals were transferred from the breeding room to the laboratory and moved freely in the cage.
(§1) Drug preparation: taking the compound to be tested, adding pure water and performing ultrasonication.
The blank control group was injected with normal saline.
(§2) The activities of these animals (movement distance in the test box) were automatically recorded by the camera, and analyzed with ANY MAZE software, and the ED50 values were calculated.

5-HT1A receptor = target: T2, 5-HT1A receptor (Homo sapiens, UniProt P08908); experiment: 5-HT1A receptor cAMP agonist test; type: cell-based
T2 sequence (P08908 1-422): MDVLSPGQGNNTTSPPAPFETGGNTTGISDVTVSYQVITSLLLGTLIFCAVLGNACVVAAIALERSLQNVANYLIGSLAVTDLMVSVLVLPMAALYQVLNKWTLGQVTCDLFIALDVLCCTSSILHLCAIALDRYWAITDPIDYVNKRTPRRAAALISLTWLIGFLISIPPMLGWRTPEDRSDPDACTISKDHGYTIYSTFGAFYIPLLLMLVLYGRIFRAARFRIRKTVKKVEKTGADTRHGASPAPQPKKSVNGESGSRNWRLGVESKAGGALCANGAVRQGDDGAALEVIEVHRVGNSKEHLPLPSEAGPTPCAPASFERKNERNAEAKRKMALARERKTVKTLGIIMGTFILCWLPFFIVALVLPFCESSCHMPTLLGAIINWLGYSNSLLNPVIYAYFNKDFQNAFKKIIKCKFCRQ
Text: The cAMP detection kit was purchased from Cisbio; the HEK293 cell line stably expressing 5-HT1A receptor was constructed by Shanghai Shujing Biotechnology Co., Ltd.; Serotonin, Forskolin and IBMX were purchased from Sigma; ProxiPlate-384-well plates was purchased from PerkinElmer; HBSS was purchased from Thermo Fisher Scientific.
Activation rate (activity%)=(negative control ratio-compound ratio)/(negative control ratio-positive control ratio)×100%
The EC50 values of the compounds were calculated using the four-parameter fitting model log(agonist)vs. response--Variable slope(four parameters) in Graph Pad Prism.

[6] = system: high spontaneous activity induced by PCP in mice; experiment: Inhibition of high spontaneous activity induced by PCP in mice; type: in vivo; conditions: p.o., PCP 5 mg/kg i.p., male C57Bl/6J mice
Protocol: Compounds to be tested: compounds of the examples of the present application, self-made.
That is, animals were transferred from the feeding room to the laboratory, and moved freely in the cage.
as §1
T0 min intraperitoneal injection of modeling drug: 30 minutes after compound administration, the mice were taken out, and administered with PCP (5 mg/kg) by intraperitoneal injection. The blank control group was injected with pure water. After the administration of PCP, the animals were immediately put back into the test box, and the test was continued for 60 minutes.
as §2

[7] = Mus musculus, half effective dose

Row | SMILES | Increase of total impurities (%) day 10 ([1]; High humidity of RH 92.5%) [%] | Increase of total impurities (%) day 20 ([1]; High humidity of RH 92.5%) [%] | Increase of total impurities (%) day 85 ([1]; High humidity of RH 92.5%) [%] | Increase of total impurities (%) day 10 ([1]; High temperature of 60°C) [%] | Increase of total impurities (%) day 20 ([1]; High temperature of 60°C) [%] | Increase of total impurities (%) day 85 ([1]; High temperature of 60°C) [%] | Increase of total impurities (%) day 10 ([1]; Illumination of 5000 lx) [%] | Increase of total impurities (%) day 20 ([1]; Illumination of 5000 lx) [%] | Increase of total impurities (%) day 85 ([1]; Illumination of 5000 lx) [%] | solution stability [3] | AUC(inf) [4] [ng·h/mL] | Cmax [4] [ng/mL] | Tmax [4] [h] | t1/2 [4] [h] | other results
1 | CNC[C@@H]1OCC2(CC2)c2sccc21 [Hydrochloride crystal form II of Compound A] [(R)-1-(4'H,6'H-spiro[cyclopropane-1,7'-thieno[3,2-c]pyran]-4'-yl)-N-methylmethyl-amine] | <0.1 | <0.1 | 0.145 | <0.1 | <0.1 | 0.133 | <0.1 | <0.1 | <0.1 | good stability | 1546.6 | 488.7 | 0.5 | 2.2 | Solubility ([2]; equilibrium solubility in deionized water, 37°C): 162.30 mg/mL
2 | CNC[C@@H]1OCC2(CC2)c2sccc21 [Hydrochloride crystal form I of Compound A] [(R)-1-(4'H,6'H-spiro[cyclopropane-1,7'-thieno[3,2-c]pyran]-4'-yl)-N-methylmethyl-amine] | <0.1 | <0.1 | 0.199 | <0.1 | <0.1 | 0.182 | <0.1 | <0.1 | <0.1 | good stability | – | – | – | – | –
3 | CNC[C@@H]1OCC2(CC2)c2sccc21 (single isomer, unassigned) [Compound A] | – | – | – | – | – | – | – | – | – | – | – | – | – | – | EC50 (TAAR1 receptor; cAMP agonist assay, cell line stably expressing TAAR1 receptor): 1.55 µM; TAAR1 Max Act% (TAAR1 receptor; maximum activation rate relative to PEA positive control): 95.5%; ED50 [5, 7]: 4.48 mg/kg; MED ([5]; minimum effective dose): 10 mg/kg; EC50 (5-HT1A receptor; cAMP agonist assay, HEK293 cell line stably expressing 5-HT1A receptor, Forskolin): 1.04 µM; 5-HT1A Max Act% (5-HT1A receptor; maximum activation rate relative to Serotonin positive control): 95.2%; ED50 [6, 7]: 0.45 mg/kg; MED ([6]; minimum effective dose): 0.1 mg/kg
4 | CNC[C@@H]1OCC2(CC2)c2sccc21 [(R)-1-(4'H,6'H-spiro[cyclopropane-1,7'-thieno[3,2-c]pyran]-4'-yl)-N-methylmethyl-amine] | – | – | – | – | – | – | – | – | – | – | 1452.6 | 480.3 | 0.5 | 3.6 | solubility at 24 h ([2]; deionized water, 37 °C, water, thermodynamic from solid): 155 mg/mL (≈ 740 mM); AUC(0-inf) ([4]; male, ICR, mouse, po): 1930 ng·h/mL; half-life ([4]; male, ICR, mouse, po): 2.8 h; Cmax ([4]; male, ICR, mouse, po, read-out: Cmax): 606 ng/mL; Tmax ([4]; male, mouse, read-out: Tmax): 0.5 h
